In US11198869B2, “Angelman syndrome antisense treatment” (The Texas A&M University System, priority 2017, dated 2021):
Oligonucleotides are written 5' to 3', each unit as a sugar letter and its base; * is a phosphorothioate linkage, no mark a phosphodiester; rarer units and linkages stand in square brackets, end groups in braces. Plain capitals give the bases only. l = locked nucleic acid (LNA); [5mC] = 5-methylcytosine; d = 2'-deoxy (DNA)

Key:
Type in all cases: cell-based, human
UBE3A-AS [1] = experiment: UBE3A-AS steady state RNA (TaqMan qRT-PCR) in GABAergic iPSC-derived neurons; conditions: for Cluster (hierarchical clustering of fitted dose response curves): candidate ASOs, Cluster 1 representing the 9 most potent ASOs; for Difference, UBE3A-AS RNA level: ASOs 10 μM
Experimental: (§1) Human-specific ASOs were then designed to target this region, which included four ASOs targeting non-polymorphic regions in human and regions conserved (100%) with macaque (Rhesus and Cynomolgus) (Table 7 and FIG. 3A). Human induced pluripotent stem cell (iPSC) neural precursor cells were differentiated into GABAergic neurons for 14 DIV and then treated with a control ASO [ASO-C (10 μM, n=3)], Topotecan [Topo (1 μM, n=2)], and six ASOs targeting UBE3A-AS [ASO-1, ASO-2, ASO-3, ASO-4, ASO-5, and ASO-6 (10 μM, n=3)]. Additionally, an ASO targeting an intronic region downstream of SNORD109B was included (ASO-7). Six days post-treatment (20 DIV), RNA was isolated from the neurons and the steady state RNA levels of UBE3A-AS and UBE3A were estimated relative to the control treatment (FIG. 3B).
The potency of ASO-4 was further examined given its effect on UBE3A-AS RNA levels. GABAergic iPSC-derived neurons were treated at 14 DIV with a 10-point ½ log dose response curve of ASO-4 and Topotecan, as a positive control and for comparisons between treatment [1 nM, 3 nM, 10 nM, 30 nM, 100 nM, 300 nM, 1 μM, 3 μM, 10 μM, and 30 μM (ASO-4, n=6; Topotecan, n=2)]. At 20 DIV, the steady state RNA levels of UBE3A-AS were measured and dose response curves fitted to estimate the IC50 and Emax (i.e., maximum UBE3A-AS inhibition) (Table 9 and FIG. 4A). […]
Additional ASOs targeting the 5′-end of UBE3A-AS were then designed to optimize the target sequences of ASO-4 (ASO-4.1, ASO-4.2, ASO-4.3, and ASO-4.4) as well as two other target regions, ASO-3 (ASO-3.1 and ASO-3.2) and ASO-6 (ASO-6.1) (Table 11). Additionally, ASO-4 was manufactured at two different vendors for comparative purposes (ASO-4.S, Sigma; ASO-4.I, Integrated DNA Technologies). Human iPSC-derived neurons (GABAergic) were treated at 14 DIV with a […] ½ log dose curve of ASO-3.1, ASO-3.2, ASO-4.S, ASO-4.I, ASO-4.1, ASO-4.2, ASO-4.3, ASO-4.4, and ASO-6.1 [30 nM, 100 nM, 300 nM, 1 μM (n=6)]. At 20 DIV, the IC50 and Emax of each ASO was estimated as described above (FIG. 5A-B and Table 12). […] No significant difference was observed between ASO-4.S and ASO-4.I.
(§2) The potency of ASO-4 and ASO-6.1 was further examined in iPSC-derived neurons at a later time point in differentiation. GABAergic iPSC-derived neurons were treated at 29 DIV with a 10-point ½ log dose response curve of ASO-4 and ASO-6.1 [1 nM, 3 nM, 10 nM, 30 nM, 100 nM, 300 nM, 1 μM, 3 μM, 10 μM, and 30 μM (n=3)]. At 35 DIV, the IC50 and Emax of each ASO was estimated as described above (FIG. 5C-D and Table 14). The dose response curves of ASO-4 and ASO-6.1 were not similar (Parallelism test: F(3,172)=22.7, p<0.0001).
(§3) GABAergic and glutamatergic induced pluripotent stem cell (iPSC) derived neural precursor cells (NRC-100-010-001 and GNC-301-030-001, Cellular Dynamics International, Madison Wis.) were differentiated into neurons according to the manufactures protocol. Briefly, neural precursor cells were thawed and resuspended in chemically defined medium and added to sterile-culture plates coated with poly-D-lysine and laminin. The medium was replaced 24 hr after plating and then one-half of the medium was replaced every 3-5 days afterwards.
(§4) For cultured iPSC-derived neurons, RNA isolation and cDNA synthesis were performed using the Cell-to-CT kit (Thermo Fisher Scientific) in a lysate volume of 55 μl.
The steady state RNA levels of target transcripts were measured using TaqMan quantitative reverse-transcription PCR (qRT-PCR) assays. Total reaction volume was 10 uL, including 2 μl of cDNA, 1× Gene Expression Master mix (4369016, Thermo Fisher Scientific, Waltham, Mass.), and 1× TaqMan primer assay (Thermo Fisher Scientific). Cycling conditions were 2 minutes at 50° C., 10 minutes at 95° C., and 40 cycles of 15 seconds at 95° C. and 1 minute at 60° C., with readings taken at the 60° C. step of every cycle. […]

UBE3A-AS [2] = experiment: as above; conditions: for IC50 Ratio relative to ASO-4.4.PS.L: equivalence; for IC50 Ratio relative to ASO-4.4.PS.L / Limit Exceeded (equivalence of IC50 relative to ASO-4.4.PS.L): two one-sided tests; for Relative Potency: relative to ASO-4.4.PS.L = 1
UBE3A = UBE3A steady state RNA (qRT-PCR) in GABAergic iPSC-derived neurons; conditions: ASOs 10 μM
Experimental: as §1
The effects of ASO-4 and Topotecan were then examined on the SNORD116, IPW, SNORD115, and SNORD109A RNAs, which are located upstream of the ASO-4 target region (see FIG. 1A).
The potency of ASO-4 was further examined in iPSC-derived neurons at a later time point in differentiation. GABAergic iPSC-derived neurons were treated at 59 DIV with a control ASO [ASO-C, 10 μM (n=3)] and ASO-4 [1 uM, 5 μM, and 10 μM (n=3)], and the steady state RNA levels of UBE3A-AS and UBE3A were measured as described above (FIG. 4G). Unlike neurons treated with ASO-4 at an earlier time point, the RNA levels of UBE3A and UBE3A-AS were highly inversely correlated (FIGS. 4H and 4I). For example, the effect of ASO-4 (10 μM) on UBE3A-AS RNA levels was similar between neurons treated at 14 and 59 DIV [20 DIV: UBE3A-AS: ↓87% (95% confidence intervals (CI): 80 to 95%); 65 DIV: ↓81% (95% CI: 74 to 88%)], whereas the effect of ASO-4 on UBE3A RNA levels was substantially larger in neurons treated at 59 DIV [20 DIV: ↑30% (95% CI: 16 to 44%); 65 DIV: ↑86% (95% CI: 59% to 113%)].
as §2, §3, §4
The steady state RNA levels of target transcripts were measured using TaqMan quantitative reverse-transcription PCR (qRT-PCR) assays. Total reaction volume was 10 uL, including 2 μl of cDNA, 1× Gene Expression Master mix (4369016, Thermo Fisher Scientific, Waltham, Mass.), and 1× TaqMan primer assay (Thermo Fisher Scientific). Cycling conditions were 2 minutes at 50° C., 10 minutes at 95° C., and 40 cycles of 15 seconds at 95° C. and 1 minute at 60° C., with readings taken at the 60° C. step of every cycle. Reactions were run on a BIO-RAD T1000 CFX96 thermocycler (Bio-Rad Laboratories, Hercules Calif.), with internal control (PPIA, Hs99999904_m1, Thermo Fisher Scientific) and target [UBE3A-AS, Hs01372957_m1; SNORD116-11, Hs04275268_gH; SNORD115, Hs04275288_gH; IPW, Hs03455409_s1; SNORD109A/B, AP47WVR (Thermo Fisher Scientific); UBE3A: forward […] (SEQ ID NO:500); reverse: […]

[3] = Cluster 1 ASOs, 18 DIV to 24 DIV, parallel model, 4 Parameter logistic (Hill)
[4] = candidate ASOs, 18 DIV to 24 DIV
[5] = candidate ASOs, 18 DIV to 24 DIV, 4-parameter logistic (Hill)
[6] = candidate ASOs, treated 18 DIV, RNA 24 DIV, 10-point dose curve, n=2, full model, 4-parameter logistic (Hill)
[7] = Topo 1 μM, 14 DIV to 20 DIV, ASO-1 minus labelled treatment
[8] = Topo 1 μM, 14 DIV to 20 DIV, ASO-R minus labelled treatment
[9] = Topo 1 μM, 14 DIV to 20 DIV, Topo minus labelled treatment
[10] = Topo 1 μM, treated 14 DIV, RNA 20 DIV, normalized to ASO-C, ASO-C minus labelled treatment
[11] = Topo 1 μM, 14 DIV to 20 DIV, labelled treatment minus ASO-3
[12] = Topo 1 μM, 14 DIV to 20 DIV, labelled treatment minus ASO-6
[13] = Topo 1 μM, 14 DIV to 20 DIV, labelled treatment minus ASO-R
[14] = Topo 1 μM, treated 14 DIV, RNA 20 DIV, normalized to ASO-C, labelled treatment minus ASO-C
[15] = 14 DIV to 20 DIV, ASO-5 minus labelled treatment

Substance	30 μM (Mean), normalized UBE3A-AS RNA level relative to vehicle (UBE3A-AS [2]; [4])	Emax (normalized UBE3A-AS RNA level relative to vehicle) (UBE3A-AS [2]; [5])	IC50 (UBE3A-AS [2]; [6]) [nM]	Difference, UBE3A-AS RNA level (UBE3A-AS [1]; [8])	Difference, UBE3A-AS RNA level (UBE3A-AS [1]; [10])	Difference, UBE3A RNA level (UBE3A; [13])	Difference, UBE3A RNA level (UBE3A; [14])	also measured
A^L*G^L*A^L-a*t*g*g*c*a*c*a*t*c*t-5mC^L*T^L*T^L*G^L (lA*lG*lAdA*dT*dG*dG*dC*dA*dC*dA*dT*dC*dTl[5mC]*lT*lT*lG) [ASO-4.4.PO-1.L]	0.1	0.04	226					Cluster (hierarchical clustering of fitted dose response curves) (UBE3A-AS [1]): 1; IC50 (UBE3A-AS [2]; [3]): 322 nM; IC50 Ratio relative to ASO-4.4.PS.L (UBE3A-AS [2]; Cluster 1 ASOs): 0.88; Relative Potency (UBE3A-AS [2]; Cluster 1 ASOs, parallel model): 0.2; Limit Exceeded (equivalence of IC50 relative to ASO-4.4.PS.L) (UBE3A-AS [2]; Cluster 1 ASOs): Lower
G^O*U^O*U^O*U^O*U^O*c*t*t*c*c*t*c*c*a*c*A^O*G^O*U^O*C^O*U^O [ASO-5]				0.69	0.71	0.16	0.16	Difference, UBE3A-AS RNA level (UBE3A-AS [1]; [7]): 0.20; Difference, UBE3A-AS RNA level (UBE3A-AS [1]; [9]): 0.05; Difference, UBE3A RNA level (UBE3A; [11]): 0.03; Difference, UBE3A RNA level (UBE3A; [12]): 0.00
U^O*G^O*U^O*C^O*A^O*g*t*t*t*c*t*c*c*c*t*G^O*A^O*A^O*C^O*A^O [ASO-3]				0.77	0.79	0.13	0.13	Difference, UBE3A-AS RNA level (UBE3A-AS [1]; [7]): 0.28; Difference, UBE3A-AS RNA level (UBE3A-AS [1]; [9]): 0.13; Difference, UBE3A-AS RNA level (UBE3A-AS [1]; [15]): 0.08
A^L*G^L-A^L*a-t*g-g*c-a*c-a*t-c*t-5mC^L*T^L*T^L*G^L (lA*lGlA*dAdT*dGdG*dCdA*dCdA*dTdC*dTl[5mC]*lT*lT*lG) [ASO-4.4.PO-2.L]	0.6	−2.7						Cluster (hierarchical clustering of fitted dose response curves) (UBE3A-AS [1]): 3
5mC^M*T^M*G^M*G^M*t*g*t*c*a*a*c*a*a*g*5mC^M*5mC^M*A^M*A^M [ASO-6.1.PS.M]	0.02	−0.05	147					IC50 (UBE3A-AS [2]; [3]): 153 nM; IC50 Ratio relative to ASO-4.4.PS.L (UBE3A-AS [2]; Cluster 1 ASOs): 0.90; Relative Potency (UBE3A-AS [2]; Cluster 1 ASOs, parallel model): 0.3; Limit Exceeded (equivalence of IC50 relative to ASO-4.4.PS.L) (UBE3A-AS [2]; Cluster 1 ASOs): equivalent IC50 values
U^O*A^O*G^O*A^O*G^O*g*t*g*a*a*g*g*c*c*a*G^O*G^O*C^O*A^O*C^O [ASO-1]				0.49	0.51	0.18	0.18	Difference, UBE3A RNA level (UBE3A; [11]): 0.05; Difference, UBE3A RNA level (UBE3A; Topo 1 μM, 14 DIV to 20 DIV, labelled treatment minus ASO-5): 0.02; Difference, UBE3A RNA level (UBE3A; [12]): 0.02; Difference, UBE3A RNA level (UBE3A; 14 DIV to 20 DIV, labelled treatment minus Topo (1 μM)): 0.00
T^L*G^L*G^L-t*g*t*c*a*a*c*a*a*g-5mC^L*5mC^L*A^L*A^L [ASO-6.1.PO-1.L]	0.2	0.03	1890					
T^M*A^M-G^M*A^M-A^M*t-g*g-c*a-c*a-t*c-t*5mC^M*T^M*T^M-G^M*G^M [ASO-4.0.PO-2.M]	0.5							
T^M*A^M*G^M*A^M*A^M*t*g*g*c*a*c*a*t*c*t*5mC^M*T^M*T^M*G^M*G^M [ASO-4.0.PS.M]	0.05	0.05	300					IC50 (UBE3A-AS [2]; [3]): 262 nM; IC50 Ratio relative to ASO-4.4.PS.L (UBE3A-AS [2]; Cluster 1 ASOs): 0.86; Relative Potency (UBE3A-AS [2]; Cluster 1 ASOs, parallel model): 0.2; Limit Exceeded (equivalence of IC50 relative to ASO-4.4.PS.L) (UBE3A-AS [2]; Cluster 1 ASOs): Lower
C^O*U^O-G^O*G^O-t*g-t*c-a*a-c*a-a*g-C^O*C^O-A^O*A^o [ASO-6.1.PO-2.O]	0.3							
T^L*G^L-G^L*t-g*t-c*a-a*c-a*a-g*5mC^L-5mC^L-A^L*A^L [ASO-6.1.PO-2.L]	0.4	0.3	734					
C^O*U^O*G^O*G^O*U^O*g*t*c*a*a*c*a*a*g*c*C^O*A^O*A^O*A^O*G^O [ASO-6]				0.81	0.83	0.16	0.16	Difference, UBE3A-AS RNA level (UBE3A-AS [1]; [7]): 0.32; Difference, UBE3A-AS RNA level (UBE3A-AS [1]; [9]): 0.17; Difference, UBE3A-AS RNA level (UBE3A-AS [1]; 14 DIV to 20 DIV, ASO-3 minus labelled treatment): 0.04; Difference, UBE3A-AS RNA level (UBE3A-AS [1]; [15]): 0.12; Difference, UBE3A RNA level (UBE3A; [11]): 0.03
